Test results from PMC5457731, “Molecular cloning, expression, and characterization of four novel thermo-alkaliphilic enzymes retrieved from a metagenomic library” (Biotechnology for Biofuels, 2017).
Blank lines part the entries; values can stand above or below the compound they belong to.

Tests used:
Experiment in all cases: pNP release at […] nm, Lineweaver-Burk
Conditions in all cases: 50 mM Tris-HCl pH 7.5, 40 °C, 15 min
[1] = tested on: T1, protein 1 (gene 1 product, fosmid NT2-2); format: biochemical, uncultured bacterium
T1 construct: full-length, pET28b(+) His-tags at N and C termini, E. coli Origami2(DE3) pLysS, ~116 kDa, gene amplicon 3146 bp

[2] = tested on: T2, protein 6 (gene 6 product, fosmid NT18-17); format: biochemical
T2 construct: full-length, pET28b(+) His-tags at N and C termini, E. coli Origami2(DE3) pLysS, ~22 kDa, gene amplicon 673 bp; alpha-glucosidase assignment unusual, host contaminant possible

[3] = tested on: T3, protein 5 (gene 5 product, fosmid 10BT); format: biochemical
T3 construct: full-length, pET28b(+) His-tags at N and C termini, E. coli Origami2(DE3) pLysS, ~45 kDa, gene amplicon 1262 bp; alpha-glucosidase assignment unusual, host contaminant possible

[4] = tested on: T4, protein 2 (gene 2 product, fosmid T5-5); format: biochemical, uncultured bacterium
T4 construct: full-length, pET28b(+) His-tags at N and C termini, E. coli Origami2(DE3) pLysS, ~85 kDa, gene amplicon 2410 bp

- Km [1]: 100 µM
SMILES: O=[N+]([O-])c1ccc(O[C@@H]2O[C@H](CO)[C@H](O)[C@H](O)[C@H]2O)cc1 [pNP-β-D-galactopyranoside]

- Km [2]: 21400 µM
- Km [3]: 7400 µM
SMILES: O=[N+]([O-])c1ccc(O[C@H]2O[C@H](CO)[C@@H](O)[C@H](O)[C@H]2O)cc1 [pNP-α-D-glucopyranoside]

- Km [4]: 300 µM
SMILES: O=[N+]([O-])c1ccc(O[C@@H]2OC[C@H](O)[C@H](O)[C@H]2O)cc1 [pNP-α-L-arabinopyranoside]

- Km [4]: 1000 µM
SMILES: O=[N+]([O-])c1ccc(O[C@@H]2OC[C@@H](O)[C@H](O)[C@H]2O)cc1 [pNP-β-D-xylopyranoside]
